Results taken from PubChem BioAssay (NCI).
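Grown in 96-well plates, cells were treated for 48 hours with each compound at five concentrations. Insufficient inhibition: endpoint recorded as highest concentration tested. Abbreviation: GI50, concentration required for 50% inhibition of growth. TGI marks complete inhibition of growth.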

Legend:
Test in all cases: growth of human tumour cells (NCI), 48 h; in the data active = GI50 below about 0.43 µM; inactive = the rest
786-0 renal = system: 786-0 renal
A498 renal = system: A498 renal
A549 NSCLC = system: A549 NSCLC
ACHN renal = system: ACHN renal
BT-549 breast = system: BT-549 breast
CAKI-1 renal = system: CAKI-1 renal
CCRF-CEM leukemia = system: CCRF-CEM leukemia
COLO 205 colon = system: COLO 205 colon
DU-145 prostate = system: DU-145 prostate
EKVX NSCLC = system: EKVX NSCLC
HCC-2998 colon = system: HCC-2998 colon
HCT-116 colon = system: HCT-116 colon
HCT-15 colon = system: HCT-15 colon
HL-60(TB) leukemia = system: HL-60(TB) leukemia
HOP-62 NSCLC = system: HOP-62 NSCLC
HOP-92 NSCLC = system: HOP-92 NSCLC
HS 578T breast = system: HS 578T breast
HT29 colon = system: HT29 colon
IGROV1 ovarian = system: IGROV1 ovarian
K-562 leukemia = system: K-562 leukemia
KM12 colon = system: KM12 colon
LOX IMVI melanoma = system: LOX IMVI melanoma
M14 melanoma = system: M14 melanoma
MALME-3M melanoma = system: MALME-3M melanoma
MCF7 breast = system: MCF7 breast
MDA-MB-231 breast = system: MDA-MB-231 breast
MDA-MB-435 = system: MDA-MB-435
MOLT-4 leukemia = system: MOLT-4 leukemia
NCI-H226 lung = system: NCI-H226 lung
NCI-H23 lung = system: NCI-H23 lung
NCI-H460 lung = system: NCI-H460 lung
NCI-H522 lung = system: NCI-H522 lung
NCI/ADR-RES ovarian = system: NCI/ADR-RES ovarian
OVCAR-3 ovarian = system: OVCAR-3 ovarian
OVCAR-4 ovarian = system: OVCAR-4 ovarian
OVCAR-5 ovarian = system: OVCAR-5 ovarian
OVCAR-8 ovarian = system: OVCAR-8 ovarian
PC-3 prostate = system: PC-3 prostate
RPMI-8226 leukemia = system: RPMI-8226 leukemia
RXF 393 renal = system: RXF 393 renal
SF-268 CNS = system: SF-268 CNS
SF-295 CNS = system: SF-295 CNS
SF-539 CNS = system: SF-539 CNS
SK-MEL-2 melanoma = system: SK-MEL-2 melanoma
SK-MEL-28 melanoma = system: SK-MEL-28 melanoma
SK-MEL-5 melanoma = system: SK-MEL-5 melanoma
SK-OV-3 ovarian = system: SK-OV-3 ovarian
SN12C renal = system: SN12C renal
SNB-19 CNS = system: SNB-19 CNS
SNB-75 CNS = system: SNB-75 CNS
SR leukemia = system: SR leukemia
SW-620 colon = system: SW-620 colon
TK-10 renal = system: TK-10 renal
U251 CNS = system: U251 CNS
UACC-257 melanoma = system: UACC-257 melanoma
UACC-62 melanoma = system: UACC-62 melanoma
UO-31 renal = system: UO-31 renal

C[C@H](Nc1ccc2c(c1)OCCn1cc(N3C(=O)OC[C@H]3C(F)F)nc1-2)C(N)=O
> 100 µM: TGI (786-0 renal) | TGI (A549 NSCLC) | TGI (ACHN renal) | TGI (BT-549 breast) | TGI (CAKI-1 renal) | TGI (CCRF-CEM leukemia) | TGI (COLO 205 colon) | TGI (DU-145 prostate) | TGI (EKVX NSCLC) | TGI (HCC-2998 colon) | TGI (HCT-116 colon) | TGI (HCT-15 colon) | TGI (HL-60(TB) leukemia) | TGI (HOP-62 NSCLC) | TGI (HT29 colon) | TGI (K-562 leukemia) | TGI (KM12 colon) | TGI (M14 melanoma) | TGI (MALME-3M melanoma) | TGI (MCF7 breast) | TGI (MDA-MB-435) | TGI (MOLT-4 leukemia) | TGI (NCI-H226 lung) | TGI (NCI-H23 lung) | TGI (NCI-H460 lung) | TGI (NCI-H522 lung) | TGI (NCI/ADR-RES ovarian) | TGI (OVCAR-3 ovarian) | TGI (OVCAR-4 ovarian) | TGI (OVCAR-8 ovarian) | TGI (PC-3 prostate) | TGI (RPMI-8226 leukemia) | TGI (SF-268 CNS) | TGI (SF-295 CNS) | TGI (SK-MEL-2 melanoma) | TGI (SK-MEL-28 melanoma) | TGI (SK-MEL-5 melanoma) | TGI (SN12C renal) | TGI (SNB-19 CNS) | TGI (SR leukemia) | TGI (SW-620 colon) | TGI (U251 CNS) | TGI (UACC-257 melanoma) | TGI (UACC-62 melanoma) | TGI (UO-31 renal)
40.4 µM: TGI (LOX IMVI melanoma)
809 nM: TGI (SK-OV-3 ovarian)
65.3 µM: TGI (MDA-MB-231 breast)
10.2 µM: TGI (A498 renal)
16.4 µM: TGI (HOP-92 NSCLC)
> 82.6 µM: TGI (OVCAR-5 ovarian)
inactive: GI50 (786-0 renal) 9.95 µM | GI50 (A498 renal) 2090 nM | GI50 (A549 NSCLC) 4.82 µM | GI50 (ACHN renal) 5 µM | GI50 (BT-549 breast) 5.4 µM | GI50 (CAKI-1 renal) 4.88 µM | GI50 (CCRF-CEM leukemia) 7.93 µM | GI50 (COLO 205 colon) 2300 nM | GI50 (DU-145 prostate) 20.3 µM | GI50 (EKVX NSCLC) 4.91 µM | GI50 (HCC-2998 colon) 1920 nM | GI50 (HCT-116 colon) 17.1 µM | GI50 (HCT-15 colon) 520 nM | GI50 (HOP-62 NSCLC) 17.5 µM | GI50 (HS 578T breast) 1770 nM | GI50 (K-562 leukemia) > 100 µM | GI50 (KM12 colon) 46.9 µM | GI50 (LOX IMVI melanoma) 4.8 µM | GI50 (M14 melanoma) 68.5 µM | GI50 (MALME-3M melanoma) > 20.7 µM | GI50 (MDA-MB-231 breast) 16.4 µM | GI50 (MDA-MB-435) 25.6 µM | GI50 (MOLT-4 leukemia) 2890 nM | GI50 (NCI-H226 lung) > 62 µM | GI50 (NCI-H23 lung) 38.5 µM | GI50 (NCI-H460 lung) 1080 nM | GI50 (NCI-H522 lung) > 100 µM | GI50 (NCI/ADR-RES ovarian) > 69.9 µM | GI50 (OVCAR-3 ovarian) 6.26 µM | GI50 (OVCAR-4 ovarian) 79.4 µM | GI50 (OVCAR-8 ovarian) > 68.3 µM | GI50 (PC-3 prostate) 3.81 µM | GI50 (RPMI-8226 leukemia) 31.3 µM | GI50 (RXF 393 renal) 5.56 µM | GI50 (SF-268 CNS) 29 µM | GI50 (SF-295 CNS) 7.8 µM | GI50 (SF-539 CNS) 3.12 µM | GI50 (SK-MEL-2 melanoma) > 100 µM | GI50 (SK-MEL-28 melanoma) 7.3 µM | GI50 (SK-MEL-5 melanoma) 20.8 µM | GI50 (SN12C renal) 13 µM | GI50 (SNB-19 CNS) 25.3 µM | GI50 (SR leukemia) 38.6 µM | GI50 (SW-620 colon) 20.5 µM | GI50 (TK-10 renal) 517 nM | GI50 (U251 CNS) > 77.6 µM | GI50 (UACC-257 melanoma) 11.5 µM | GI50 (UACC-62 melanoma) 3.05 µM | GI50 (UO-31 renal) 1570 nM
5.12 µM: TGI (SNB-75 CNS)
215 nM: TGI (IGROV1 ovarian)
active: GI50 (HL-60(TB) leukemia) 413 nM | GI50 (HOP-92 NSCLC) 183 nM | GI50 (HT29 colon) 153 nM | GI50 (IGROV1 ovarian) 19.9 nM | GI50 (MCF7 breast) 35.4 nM | GI50 (OVCAR-5 ovarian) 421 nM | GI50 (SK-OV-3 ovarian) 30.7 nM | GI50 (SNB-75 CNS) 61.9 nM
43.8 µM: TGI (SF-539 CNS)
> 91.2 µM: TGI (TK-10 renal)
45.8 µM: TGI (RXF 393 renal)
68.1 µM: TGI (HS 578T breast)
